Target: A/H3N2 influenza NA (Influenza A virus (H3N2), UniProt Q91IQ5)
Format: biochemical, A/H3N2 influenza virus (clinical isolate from Hong Kong)
Conditions: 10 µM

Row | SMILES | Inhibitory rate against A/H3N2 influenza NA
1 | CCC(CC)O[C@@H]1C=C(C(=O)O)C[C@H](NC(=O)c2cc(-c3ccc(Cl)cc3)nn2CC2CCCCC2)[C@H]1NC(C)=O [Compound 16c, (3R,4R,5S)-4-acetamido-5-(3-(4-chlorophenyl)-1-(cyclohexylmethyl)-1H-pyrazole-5-carboxamido)-3-(pentan-3-yloxy) cyclohex-1-ene-1-carboxylic acid] | 48.50%
2 | CCC(CC)O[C@@H]1C=C(C(=O)O)C[C@H](NC(=O)c2cc(C3CC3)n(-c3ccccc3)n2)[C@H]1NC(C)=O [Compound 24a, (3R,4R,5S)-4-acetamido-5-(5-cyclopropyl-1-phenyl-1H-pyrazole-3-carboxamido)-3-(pentan-3-yloxy) cyclohex-1-ene-1-carboxylic acid] | 30.57%
3 | CCC(CC)O[C@@H]1C=C(C(=O)O)C[C@H](NC(=O)c2cc(C3CC3)n(-c3ccccc3C)n2)[C@H]1NC(C)=O [Compound 24b, (3R,4R,5S)-4-acetamido-5-(5-cyclopropyl-1-(o-tolyl)-1H-pyrazole-3-carboxamido)-3-(pentan-3-yloxy) cyclohex-1-ene-1-carboxylic acid] | 60.91%
4 | CCC(CC)O[C@@H]1C=C(C(=O)O)C[C@H](NC(=O)c2cc(C3CC3)n(-c3cccc(C)c3)n2)[C@H]1NC(C)=O [Compound 24c, (3R,4R,5S)-4-acetamido-5-(5-cyclopropyl-1-(m-tolyl)-1H-pyrazole-3-carboxamido)-3-(pentan-3-yloxy) cyclohex-1-ene-1-carboxylic acid] | 34.75%
5 | CCC(CC)O[C@@H]1C=C(C(=O)O)C[C@H](NC(=O)c2cc(C3CC3)n(-c3ccc(Br)cc3)n2)[C@H]1NC(C)=O [Compound 24d, (3R,4R,5S)-4-acetamido-5-(1-(4-bromophenyl)-5-cyclopropyl-1H-pyrazole-3-carboxamido)-3-(pentan-3-yloxy) cyclohex-1-ene-1-carboxylic acid] | 42.68%
6 | CCC(CC)O[C@@H]1C=C(C(=O)O)C[C@H](NC(=O)c2cc(C3CC3)n(-c3ccc(C(F)(F)F)cc3)n2)[C@H]1NC(C)=O [Compound 24e, (3R,4R,5S)-4-acetamido-5-(5-cyclopropyl-1-(4-(trifluoromethyl)phenyl)-1H-pyrazole-3-carboxamido)-3-(pentan-3-yloxy) cyclohex-1-ene-1-carboxylic acid] | 44.47%
7 | CCC(CC)O[C@@H]1C=C(C(=O)O)C[C@H](NC(=O)c2cc(C3CC3)nn2-c2ccccc2)[C@H]1NC(C)=O [Compound 26a, (3R,4R,5S)-4-acetamido-5-(3-cyclopropyl-1-phenyl-1H-pyrazole-5-carboxamido)-3-(pentan-3-yloxy) cyclohex-1-ene-1-carboxylic acid] | 30.41%
8 | CCC(CC)O[C@@H]1C=C(C(=O)O)C[C@H](NC(=O)c2cc(C3CC3)nn2-c2ccccc2C)[C@H]1NC(C)=O [Compound 26b, (3R,4R,5S)-4-acetamido-5-(3-cyclopropyl-1-(o-tolyl)-1H-pyrazole-5-carboxamido)-3-(pentan-3-yloxy) cyclohex-1-ene-1-carboxylic acid] | 72.80%
9 | CCC(CC)O[C@@H]1C=C(C(=O)O)C[C@H](NC(=O)c2cc(C3CC3)nn2-c2cccc(C)c2)[C@H]1NC(C)=O [Compound 26c, (3R,4R,5S)-4-acetamido-5-(3-cyclopropyl-1-(m-tolyl)-1H-pyrazole-5-carboxamido)-3-(pentan-3-yloxy) cyclohex-1-ene-1-carboxylic acid] | 31.53%
10 | CCC(CC)O[C@@H]1C=C(C(=O)O)C[C@H](NC(=O)c2cc(C3CC3)nn2-c2ccc(Br)cc2)[C@H]1NC(C)=O [Compound 26d, (3R,4R,5S)-4-acetamido-5-(1-(4-bromophenyl)-3-cyclopropyl-1H-pyrazole-5-carboxamido)-3-(pentan-3-yloxy) cyclohex-1-ene-1-carboxylic acid] | 37.17%
11 | CCC(CC)O[C@@H]1C=C(C(=O)O)C[C@H](N)[C@H]1NC(C)=O [OC, oseltamivir carboxylate, reference compound] | 97.46%
